Literature values, collected in patent US20150056194A1, “MODIFIED GREEN TEA POLYPHENOLS AND METHODS THEREOF FOR TREATING LIVER DISEASE” (priority 2013, published 2015).

Experiments:
[1] = animals receiving tea preparations in cancer prevention studies
influenza = conditions: compared with EGCG

Molecule	blood levels [1]	anti-influenza activity, times more effective than EGCG (influenza)
O=C(O[C@@H]1Cc2c(O)cc(O)cc2O[C@@H]1c1cc(O)c(O)c(O)c1)c1cc(O)c(O)c(O)c1 [EGCG, (−)-Epigallocatechin-3-gallate]	lower than 0.5 μuM	–
EGCG-palmitate	–	24 times
